Measurements from patent US7598278B2, “Administration of pyridinedicarboxylic acid compounds for stimulating or inducing the growth of human keratinous fibers and/or arresting their loss” (L'Oreal, priority 2002, dated 2009).
Like-named read-outs stand apart in the source and are kept apart here.

Legend:
[1] = tested on: men exhibiting androgenetic alopecia of stage III to V according to the Hamilton classification; conditions: for No. of hairs/per cm^2 (DE): mean ± standard deviation
Protocol: Pyridine-2,4-dicarboxylic acid was tested in the form of the Na double salt formulated at a concentration of 5% in an aqueous/alcoholic lotion.
The evaluation of the effectiveness of the treatments was carried out by determining the total pilar density of hairs per cm^2 (DE) using the phototrichogram technique. This examination was carried out before treatment (M0) and after 3 months of treatment (M3).

proline hydroxylase = conditions: K. Majamaa et al., Eur. J. Biochem., 138, 1984, 239-245; cited from earlier work
[2] = tested on: men exhibiting androgenetic alopecia of stage III to V according to the Hamilton classification; test: 1st study: in vivo activity, total pilar density of hairs per cm^2 (DE) by phototrichogram; design: species or system human; conditions: for No. of hairs/per cm^2 (DE): mean ± standard deviation
Excerpt: It was studied at a concentration of 2%, formulated in a ternary lotion based on propylene glycol, ethanol and water.

| SMILES | hair loss (decrease in total density) compared with placebo areas, times smaller ([1]; 5% lotion, 3 months, versus placebo areas) | No. of hairs/per cm^2 (DE) ([1]; M0, before treatment, scalp area to receive 5% aqueous/alcoholic lotion, 22 men) | No. of hairs/per cm^2 (DE) ([1]; M3, after 3 months, 5% aqueous/alcoholic lotion, 30 μl once daily, 5 days per week, topical on scalp) | DE variation (%) ([1]; mean of the variation at M3 with respect to M0, 5% lotion, 30 μl once daily, 5 days per week, 3 months) | inhibition of proline hydroxylase (in words) (proline hydroxylase) | change of total density of treated areas (in words) ([2]; 2% lotion, 3 months, placebo areas do not change) | No. of hairs/per cm^2 (DE) ([2]; M0, before treatment, scalp area to receive 2% lotion (propylene glycol, ethanol, water), 25 men) | No. of hairs/per cm^2 (DE) ([2]; M3, after 3 months, 2% lotion, 30 μl once daily, 5 days per week, topical on scalp) | DE variation (%) ([2]; M3 with respect to M0, 2% lotion, 30 μl once daily, 5 days per week, 3 months) |
| --- | --- | --- | --- | --- | --- | --- | --- | --- | --- |
| O=C([O-])c1ccnc(C(=O)[O-])c1.[Na+].[Na+] [Na disalt of Pyridine-2,4-dicarboxylic acid] | 4 times | 249 ± 50 hairs/per cm^2 | 246 ± 50 hairs/per cm^2 | −0.97% |  |  |  |  |  |
| O=C(O)c1ccc(C(=O)O)nc1 [pyridine-2,5-dicarboxylic acids, pyridine-2,5-dicarboxylic acid] |  |  |  |  | very weak inhibitors |  |  |  |  |
| O=C(O)c1ccnc(C(=O)O)c1 [Pyridine-2,4-dicarboxylic acid] |  |  |  |  | very weak inhibitors | increase in the total density | 213 ± 45 hairs/per cm^2 | 224 ± 53 hairs/per cm^2 | 4.4% |
